Here are results for 8 molecules from ChEMBL document CHEMBL1201862, “PubChem BioAssay data set” (2004).

As usually defined, the IC50 is the concentration that inhibits the measured activity by half. The AC50 is the concentration giving half of the maximal activity seen.

Calls of active or inactive are those of the source. Where only a bound is given, the exact number is not on record here.

Test [1] concerns the target T1, Rac GTPase-activating protein 1 (Homo sapiens, UniProt Q9H0H5).
T1 sequence (Q9H0H5 whole entry): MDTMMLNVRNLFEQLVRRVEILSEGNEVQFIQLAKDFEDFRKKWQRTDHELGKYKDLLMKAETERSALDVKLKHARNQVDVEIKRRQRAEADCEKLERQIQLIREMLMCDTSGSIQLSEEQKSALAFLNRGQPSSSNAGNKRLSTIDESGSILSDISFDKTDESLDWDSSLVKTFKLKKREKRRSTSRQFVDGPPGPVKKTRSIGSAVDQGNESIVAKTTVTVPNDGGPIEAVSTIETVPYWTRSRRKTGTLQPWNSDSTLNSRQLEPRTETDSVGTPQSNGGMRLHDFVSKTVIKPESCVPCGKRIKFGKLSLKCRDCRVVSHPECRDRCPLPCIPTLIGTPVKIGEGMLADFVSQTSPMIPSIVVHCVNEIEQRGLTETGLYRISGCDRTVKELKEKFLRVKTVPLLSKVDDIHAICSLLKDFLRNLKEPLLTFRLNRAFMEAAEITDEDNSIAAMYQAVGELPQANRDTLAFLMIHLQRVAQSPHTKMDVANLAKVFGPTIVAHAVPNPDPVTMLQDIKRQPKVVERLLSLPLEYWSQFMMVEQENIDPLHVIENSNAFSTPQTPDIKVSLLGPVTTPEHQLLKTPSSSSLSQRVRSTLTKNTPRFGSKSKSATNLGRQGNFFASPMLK
Nature of the test: blockers of MgcRacGAP-driven Rac1 GTP hydrolysis – biochemical, ADP Hunter fluorescence, primary and confirmatory, confirmation (AID 624330). The class given is functional.

The next test deals with Large T antigen (Simian virus 40, UniProt P03070). It is filed as functional, Betapolyomavirus macacae.
Large T antigen, sequence (P03070 whole entry): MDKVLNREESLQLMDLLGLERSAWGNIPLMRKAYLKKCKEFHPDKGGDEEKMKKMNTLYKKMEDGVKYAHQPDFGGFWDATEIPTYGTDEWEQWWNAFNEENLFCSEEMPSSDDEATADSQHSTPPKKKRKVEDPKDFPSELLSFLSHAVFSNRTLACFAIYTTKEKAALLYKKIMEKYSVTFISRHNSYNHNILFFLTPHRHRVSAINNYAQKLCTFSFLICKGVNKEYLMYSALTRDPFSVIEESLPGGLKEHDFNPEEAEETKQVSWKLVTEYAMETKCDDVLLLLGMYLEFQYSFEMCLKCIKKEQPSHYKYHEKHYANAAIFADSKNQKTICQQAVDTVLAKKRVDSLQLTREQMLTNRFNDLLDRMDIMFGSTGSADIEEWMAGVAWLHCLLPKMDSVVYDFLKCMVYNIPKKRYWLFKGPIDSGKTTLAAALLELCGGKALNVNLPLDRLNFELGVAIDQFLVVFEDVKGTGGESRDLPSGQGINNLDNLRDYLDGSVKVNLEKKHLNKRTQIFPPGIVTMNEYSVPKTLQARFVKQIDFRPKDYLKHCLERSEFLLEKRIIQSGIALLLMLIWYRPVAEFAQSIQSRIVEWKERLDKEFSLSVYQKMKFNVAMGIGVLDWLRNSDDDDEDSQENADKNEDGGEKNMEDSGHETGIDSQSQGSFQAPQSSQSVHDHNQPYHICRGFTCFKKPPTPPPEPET
A further test concerns the target Genome polyprotein (dengue virus type 2, UniProt P29990). Nature of the test: flavivirus cap methylation enzyme inhibition – biochemical, confirmation dose response, primary screen (AID 588689). The class given is functional.
Another test has as its target T2, Protein skinhead-1 (Caenorhabditis elegans, UniProt P34707).
T2 sequence (P34707 whole entry): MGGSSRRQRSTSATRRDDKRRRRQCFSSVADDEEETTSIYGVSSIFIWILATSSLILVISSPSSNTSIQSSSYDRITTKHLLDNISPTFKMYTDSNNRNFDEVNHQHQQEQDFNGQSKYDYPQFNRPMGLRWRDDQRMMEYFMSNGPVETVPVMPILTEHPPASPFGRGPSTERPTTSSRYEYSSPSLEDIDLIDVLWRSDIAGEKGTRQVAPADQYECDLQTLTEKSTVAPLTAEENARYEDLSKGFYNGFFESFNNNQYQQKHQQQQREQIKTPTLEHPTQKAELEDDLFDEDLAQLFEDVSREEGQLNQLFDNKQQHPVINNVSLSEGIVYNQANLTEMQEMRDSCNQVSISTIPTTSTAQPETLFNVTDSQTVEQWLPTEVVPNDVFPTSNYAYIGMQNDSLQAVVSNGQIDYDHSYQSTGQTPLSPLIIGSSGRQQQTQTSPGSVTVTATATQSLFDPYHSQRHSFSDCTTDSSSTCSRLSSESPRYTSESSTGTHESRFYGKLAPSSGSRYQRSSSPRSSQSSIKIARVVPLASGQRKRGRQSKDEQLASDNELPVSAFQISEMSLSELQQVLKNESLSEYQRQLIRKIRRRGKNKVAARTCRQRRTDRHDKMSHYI
It is filed as functional.

In another test the target is T3, Protein RecA (Mycobacterium tuberculosis, UniProt P9WHJ3).
T3 sequence (P9WHJ3 whole entry): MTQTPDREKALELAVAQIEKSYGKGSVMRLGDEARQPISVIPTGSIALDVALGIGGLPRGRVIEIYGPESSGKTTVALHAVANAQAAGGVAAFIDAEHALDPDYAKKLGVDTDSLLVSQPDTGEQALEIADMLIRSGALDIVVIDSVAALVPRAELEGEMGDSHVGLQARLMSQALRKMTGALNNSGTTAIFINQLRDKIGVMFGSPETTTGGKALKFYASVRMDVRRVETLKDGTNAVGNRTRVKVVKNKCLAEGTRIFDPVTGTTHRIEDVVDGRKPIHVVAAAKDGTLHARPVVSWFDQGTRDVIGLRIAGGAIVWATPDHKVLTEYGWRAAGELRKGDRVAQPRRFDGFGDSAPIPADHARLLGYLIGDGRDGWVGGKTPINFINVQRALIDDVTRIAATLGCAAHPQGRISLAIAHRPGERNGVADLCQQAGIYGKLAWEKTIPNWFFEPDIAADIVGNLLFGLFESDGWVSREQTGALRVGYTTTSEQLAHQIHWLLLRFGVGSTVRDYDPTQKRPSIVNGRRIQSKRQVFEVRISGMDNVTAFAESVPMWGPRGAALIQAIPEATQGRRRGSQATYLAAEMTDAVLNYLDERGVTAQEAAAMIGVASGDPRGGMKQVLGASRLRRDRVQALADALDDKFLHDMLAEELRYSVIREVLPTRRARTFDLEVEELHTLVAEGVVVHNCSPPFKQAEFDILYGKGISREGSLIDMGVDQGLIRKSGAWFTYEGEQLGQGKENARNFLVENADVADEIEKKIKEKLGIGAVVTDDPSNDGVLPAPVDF
The test is described as follows: Fluorescence Cell-Free Homogeneous Dose Retest to Identify Inhibitors of RecA-Intein Splicing Activity. [Related pubchem assays (depositor defined):AID2097, AID2223, AID489010, AID492950]. The class given is functional.

Test [2] deals with T4, Replicative DNA helicase DnaB (Mycobacterium tuberculosis, UniProt P9WMR3).
T4 sequence (P9WMR3 whole entry): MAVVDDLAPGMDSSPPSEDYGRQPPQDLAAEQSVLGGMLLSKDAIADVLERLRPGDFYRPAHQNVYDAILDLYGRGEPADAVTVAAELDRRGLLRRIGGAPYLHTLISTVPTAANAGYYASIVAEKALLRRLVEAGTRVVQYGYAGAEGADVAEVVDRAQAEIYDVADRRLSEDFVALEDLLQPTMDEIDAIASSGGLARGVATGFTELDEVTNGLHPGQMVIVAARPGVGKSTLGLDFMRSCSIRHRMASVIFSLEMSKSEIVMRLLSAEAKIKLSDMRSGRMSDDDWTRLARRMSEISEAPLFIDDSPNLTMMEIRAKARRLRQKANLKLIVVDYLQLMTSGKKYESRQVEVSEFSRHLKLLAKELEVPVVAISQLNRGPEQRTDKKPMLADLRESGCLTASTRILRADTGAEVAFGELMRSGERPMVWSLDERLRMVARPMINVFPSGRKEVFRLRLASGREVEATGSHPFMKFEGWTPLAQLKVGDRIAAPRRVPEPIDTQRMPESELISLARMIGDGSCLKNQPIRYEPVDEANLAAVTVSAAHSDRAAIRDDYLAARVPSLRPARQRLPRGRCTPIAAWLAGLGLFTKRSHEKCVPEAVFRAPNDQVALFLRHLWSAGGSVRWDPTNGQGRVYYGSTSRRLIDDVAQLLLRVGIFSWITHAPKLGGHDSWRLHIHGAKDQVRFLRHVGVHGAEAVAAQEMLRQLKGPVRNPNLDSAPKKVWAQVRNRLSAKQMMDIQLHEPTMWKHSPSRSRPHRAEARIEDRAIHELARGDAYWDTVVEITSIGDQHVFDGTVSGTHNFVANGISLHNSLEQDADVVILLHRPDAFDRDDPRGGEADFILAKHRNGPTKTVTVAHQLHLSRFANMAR
The test is described as follows: DnaB intein splicing inhibitors, dose response, biochemical, cell-free fluorescence (AID 449749). It is filed as functional.

In test [3] the target is T5, Corticotropin-releasing factor receptor 2/Corticotropin-releasing factor-binding protein (Homo sapiens, UniProt P24387+Q13324).
T5 sequence (Q13324 whole entry): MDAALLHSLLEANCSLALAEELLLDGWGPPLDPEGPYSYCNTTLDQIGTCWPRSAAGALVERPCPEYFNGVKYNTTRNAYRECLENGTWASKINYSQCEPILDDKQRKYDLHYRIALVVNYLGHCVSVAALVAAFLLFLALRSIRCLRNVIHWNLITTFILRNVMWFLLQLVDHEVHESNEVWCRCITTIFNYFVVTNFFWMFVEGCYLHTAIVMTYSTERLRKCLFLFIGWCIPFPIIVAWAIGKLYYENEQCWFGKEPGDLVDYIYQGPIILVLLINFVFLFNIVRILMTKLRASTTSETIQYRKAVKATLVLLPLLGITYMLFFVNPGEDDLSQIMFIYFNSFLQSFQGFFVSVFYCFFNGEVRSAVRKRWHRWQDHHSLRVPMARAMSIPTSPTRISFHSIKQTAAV
T5 sequence (P24387 whole entry): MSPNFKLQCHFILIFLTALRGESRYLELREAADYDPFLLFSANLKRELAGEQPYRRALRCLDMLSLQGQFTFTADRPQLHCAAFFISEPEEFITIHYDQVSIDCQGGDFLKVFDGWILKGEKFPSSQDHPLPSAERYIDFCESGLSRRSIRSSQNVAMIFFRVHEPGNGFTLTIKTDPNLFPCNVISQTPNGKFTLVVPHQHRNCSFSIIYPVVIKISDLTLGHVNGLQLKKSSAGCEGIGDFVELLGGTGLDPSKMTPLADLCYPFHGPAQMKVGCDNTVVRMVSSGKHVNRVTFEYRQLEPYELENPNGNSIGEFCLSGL
Nature of the test: activators of CRF receptor 2 with binding protein – uHTS hits, confirmation (AID 602473). The class given is functional. Conditions: read-out: EC50_Mean.

Test [4] addresses T6, Zinc finger protein mex-5 (Caenorhabditis elegans, UniProt Q9XUB2).
T6 sequence (Q9XUB2 whole entry): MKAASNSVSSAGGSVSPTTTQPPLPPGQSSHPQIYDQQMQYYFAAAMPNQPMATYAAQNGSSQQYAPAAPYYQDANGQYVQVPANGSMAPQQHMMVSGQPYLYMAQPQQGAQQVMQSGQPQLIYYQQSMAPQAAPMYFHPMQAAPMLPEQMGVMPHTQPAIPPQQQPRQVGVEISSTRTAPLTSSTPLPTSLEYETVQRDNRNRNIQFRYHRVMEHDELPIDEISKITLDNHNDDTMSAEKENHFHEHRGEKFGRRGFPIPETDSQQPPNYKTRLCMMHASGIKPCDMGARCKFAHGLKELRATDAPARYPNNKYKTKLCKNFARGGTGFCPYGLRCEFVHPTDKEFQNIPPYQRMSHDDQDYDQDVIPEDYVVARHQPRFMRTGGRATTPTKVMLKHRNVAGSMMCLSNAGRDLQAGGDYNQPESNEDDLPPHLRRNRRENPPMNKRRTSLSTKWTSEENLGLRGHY
The test is described as follows: potency of MEX-5 RNA-binding blockers – biochemical, C. elegans, fluorescence polarization, dose response (AID 1960). For orientation: Fluorescence polarisation rises when a labelled molecule tumbles more slowly, as on binding a larger partner.

Test [5] is described as follows: Luminescence Cell-Based Dose Confirmation HTS to Identify Activators of 5'UTR Stem-Loop Driven Alpha-Synuclein mRNA Translation in H4 Neuroglioblastoma Cells. [Related pubchem assays: 1829 (Project Summary), 1814 (Primary HTS)]. It is filed as functional.
Test [6] is described as follows: Luminescence Cell-Based Dose Response HTS to Identify Activators of Luciferase Translation or Activity in H4 […] Cells. [Related pubchem assays: 1829 (Project Summary), 1814 (Primary HTS)]. The class given is functional.
Test [7] addresses T7, RNA-binding protein pos-1 (Caenorhabditis elegans, UniProt G5EF15).
T7 sequence (G5EF15 whole entry): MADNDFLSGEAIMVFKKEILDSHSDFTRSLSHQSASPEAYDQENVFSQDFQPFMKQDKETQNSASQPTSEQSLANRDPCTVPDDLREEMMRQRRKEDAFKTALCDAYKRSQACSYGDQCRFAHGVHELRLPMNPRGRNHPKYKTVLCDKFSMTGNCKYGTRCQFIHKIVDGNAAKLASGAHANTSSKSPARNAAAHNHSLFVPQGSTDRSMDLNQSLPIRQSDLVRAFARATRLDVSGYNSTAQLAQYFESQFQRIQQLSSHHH
Nature of the test: disruptors of C. elegans POS-1 RNA interaction – biochemical, fluorescence polarization, dose response (AID 1964).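 Further: purified POS-1 fused to maltose binding protein made in E. coli; potency of compounds blocking POS-1 binding to fluorescent RNA.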

In a further test the test system is H4. The test is described as follows: Luminescence Cell-Based Dose Response HTS to Identify Activators of 5'UTR Stem-Loop Driven Prion Protein mRNA Translation in H4 Neuroglioblastoma Cells. [Related pubchem assays: 1829 (Project Summary), 1814 (Primary HTS)]. It is filed as functional. Conditions: Homo sapiens.
In test [8] the target is FAD-linked sulfhydryl oxidase ALR (Homo sapiens, UniProt P55789). The test is described as follows: ALR-catalysed DTT oxidation blockers – biochemical, H2O2 detection, luminescence, cherry-pick, dose response (AID 493248).
FAD-linked sulfhydryl oxidase ALR, sequence (P55789 whole entry): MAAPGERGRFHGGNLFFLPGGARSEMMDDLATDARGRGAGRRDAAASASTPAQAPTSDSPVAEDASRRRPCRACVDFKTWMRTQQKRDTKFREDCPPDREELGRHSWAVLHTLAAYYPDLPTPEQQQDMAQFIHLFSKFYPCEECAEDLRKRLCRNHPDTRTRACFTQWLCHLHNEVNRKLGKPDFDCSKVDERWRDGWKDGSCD

Genome polyprotein, sequence (P29990 2492-3391 limits assumed): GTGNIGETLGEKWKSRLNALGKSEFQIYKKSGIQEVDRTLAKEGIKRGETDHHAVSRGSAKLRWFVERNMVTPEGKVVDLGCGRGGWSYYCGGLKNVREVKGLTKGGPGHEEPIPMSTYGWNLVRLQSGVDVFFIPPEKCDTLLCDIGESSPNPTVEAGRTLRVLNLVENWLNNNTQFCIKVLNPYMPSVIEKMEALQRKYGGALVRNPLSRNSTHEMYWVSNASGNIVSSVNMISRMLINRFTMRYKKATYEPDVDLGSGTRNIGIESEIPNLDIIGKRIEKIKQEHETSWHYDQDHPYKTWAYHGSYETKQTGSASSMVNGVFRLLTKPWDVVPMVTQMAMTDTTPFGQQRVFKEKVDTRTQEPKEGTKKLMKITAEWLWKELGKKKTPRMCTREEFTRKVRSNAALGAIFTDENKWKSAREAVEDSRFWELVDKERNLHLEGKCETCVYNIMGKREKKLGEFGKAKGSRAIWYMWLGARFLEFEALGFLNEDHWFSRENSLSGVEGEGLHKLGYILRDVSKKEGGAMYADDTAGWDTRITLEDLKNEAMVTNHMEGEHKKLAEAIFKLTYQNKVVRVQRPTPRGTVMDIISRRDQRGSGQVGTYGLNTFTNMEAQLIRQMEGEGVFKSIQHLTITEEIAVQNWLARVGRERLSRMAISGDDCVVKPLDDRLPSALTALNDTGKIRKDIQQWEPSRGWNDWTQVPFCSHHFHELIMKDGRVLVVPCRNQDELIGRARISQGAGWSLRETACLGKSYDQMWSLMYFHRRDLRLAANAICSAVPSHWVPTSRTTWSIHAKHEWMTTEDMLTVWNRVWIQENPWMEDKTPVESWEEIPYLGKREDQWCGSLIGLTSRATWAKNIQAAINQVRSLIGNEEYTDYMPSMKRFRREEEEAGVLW

`COc1cc(/C=N/NC(=O)c2cnccn2)ccc1O`: the IC50 in test [1] was 20.3 µM (active); on Large T antigen it was 5.52 µM (active).

As to `CN1C(=O)C(=Cc2ccccc2Oc2ccc(Cl)cc2)C(=O)N(C)C1=O`, the IC50 at Genome polyprotein was 41.5 µM (active).

As to `O=C(Nc1ccc(O)cc1)C1CCCO1` (stereo not drawn), the IC50 on Large T antigen was 28.1 µM (active).

As for `Clc1cc(NCc2cccs2)ccc1N1CCOCC1`, the results for the IC50 at Large T antigen and at Protein skinhead-1 were 65.2 µM (active) and > 100 µM (inactive), respectively.

Consider `CN(C)c1ccc(/C=C/c2cc[n+]([O-])cc2)cc1`, for which, at Large T antigen, the IC50 is 11.4 µM (active).

With `O=C1C(Cl)=C(N2CCOCC2)C(=O)N1c1ccc(Br)cc1`, the IC50 on Genome polyprotein is 36.2 µM (active). For the same molecule, the EC50 at Protein RecA is 2.11 µM (active). In addition, the AC50 in [2] is 4.11 µM (active).

For `Cc1cccc(-n2c(C)cc(C=C3C(=O)c4ccccc4C3=O)c2C)c1`, the EC50 was 12.9 µM (active) in test [3]; 34.7 µM (inconclusive) in [4]; 54.2 µM (active) in test [5]; 11.4 µM (active) in test [6]; 46.6 µM (active) in test [7]; 7.1 µM (active) in the test on H4.

With `COc1ccc(NC2CCCN(C(=O)CCn3cccn3)C2)cc1` (stereo not drawn), on Large T antigen, the IC50 was 9.68 µM (active). Moreover, the AC50 in [8] is 2.78 µM (active).
